Data as given in the NIST ThermoML archive (doi:10.1021/je400977r).

Assay: mn = molality of the nth substance listed, in mol/kg
Conditions: 101 kPa, Liquid; for speed of sound: Pulse-echo method

OC[C@H]1O[C@H](OC[C@H]2O[C@H](O[C@]3(CO)O[C@H](CO)[C@@H](O)[C@@H]3O)[C@H](O)[C@@H](O)[C@@H]2O)[C@H](O)[C@@H](O)[C@H]1O [D-raffinose] + O
Conditions	mass density, 293.15 K [kg/m3]	mass density, 298.15 K [kg/m3]	mass density, 303.15 K [kg/m3]	mass density, 308.15 K [kg/m3]	mass density, 313.15 K [kg/m3]	speed of sound, 293.15 K [m/s]	speed of sound, 298.15 K [m/s]	speed of sound, 303.15 K [m/s]	speed of sound, 308.15 K [m/s]	speed of sound, 313.15 K [m/s]
m1 = 0.05	1007.77	1006.5	1004.91	1003.05	1001.02	1491.8	1505.7	1517.8	1528.3	1537.3
m1 = 0.055	1008.68	1007.4	1005.81	1003.92	1001.99	1492.6	1506.5	1518.6	1529.1	1538.1
m1 = 0.06	1009.59	1008.29	1006.72	1004.79	1002.85	1493.5	1507.3	1519.4	1529.8	1538.8
m1 = 0.065	1010.49	1009.18	1007.61	1005.69	1003.72	1494.3	1508.2	1520.2	1530.6	1539.6
m1 = 0.07	1011.48	1010.16	1008.56	1006.61	1004.62	1495.1	1509	1521	1531.4	1540.4
m1 = 0.075	1012.36	1011.1	1009.46	1007.55	1005.58	1496	1509.8	1521.8	1532.1	1541.1
m1 = 0.08	1013.3	1011.98	1010.34	1008.42	1006.46	1496.8	1510.6	1522.6	1532.9	1541.9
m1 = 0.085	1014.21	1012.93	1011.23	1009.29	1007.35	1497.7	1511.4	1523.4	1533.7	1542.7
m1 = 0.09	1015.18	1013.88	1012.18	1010.25	1008.33	1498.5	1512.2	1524.2	1534.4	1543.4
m1 = 0.1	1016.99	1015.7	1014.08	1011.99	1010.23	1500.1	1513.9	1525.8	1536	1544.9

O=C[C@H](O)[C@H](O)[C@H](O)CO [D-ribose] + O
Conditions	mass density, 293.15 K [kg/m3]	mass density, 298.15 K [kg/m3]	mass density, 303.15 K [kg/m3]	mass density, 308.15 K [kg/m3]	mass density, 313.15 K [kg/m3]	speed of sound, 293.15 K [m/s]	speed of sound, 298.15 K [m/s]	speed of sound, 303.15 K [m/s]	speed of sound, 308.15 K [m/s]	speed of sound, 313.15 K [m/s]
m1 = 0.05	1001.07	999.887	998.463	996.819	994.955	1485.2	1499.2	1511.3	1521.9	1530.9
m1 = 0.055	1001.36	1000.17	998.749	997.103	995.237	1485.4	1499.4	1511.5	1522	1531
m1 = 0.06	1001.65	1000.47	999.035	997.383	995.517	1485.6	1499.5	1511.6	1522.2	1531.2
m1 = 0.065	1001.94	1000.75	999.317	997.667	995.796	1485.8	1499.7	1511.8	1522.3	1531.3
m1 = 0.07	1002.23	1001.04	999.606	997.954	996.076	1485.9	1499.8	1511.9	1522.5	1531.4
m1 = 0.075	1002.52	1001.33	999.887	998.237	996.357	1486.1	1500	1512	1522.6	1531.6
m1 = 0.08	1002.82	1001.62	1000.17	998.519	996.637	1486.2	1500.1	1512.2	1522.7	1531.7
m1 = 0.085	1003.11	1001.91	1000.47	998.806	996.917	1486.4	1500.2	1512.2	1522.8	1531.8
m1 = 0.09	1003.4	1002.21	1000.75	999.089	997.196	1486.5	1500.3	1512.4	1523	1532
m1 = 0.1	1003.98	1002.79	1001.33	999.652	997.754	1486.8	1500.6	1512.6	1523.2	1532.2

CC(C)C[C@H](N)C(=O)O [L-leucine] + O
Conditions	mass density, 293.15 K [kg/m3]	mass density, 298.15 K [kg/m3]	mass density, 303.15 K [kg/m3]	mass density, 308.15 K [kg/m3]	mass density, 313.15 K [kg/m3]	speed of sound, 293.15 K [m/s]	speed of sound, 298.15 K [m/s]	speed of sound, 303.15 K [m/s]	speed of sound, 308.15 K [m/s]	speed of sound, 313.15 K [m/s]
m1 = 0.025	998.94	997.765	996.352	994.719	992.893	1486.2	1500.2	1512.3	1522.8	1531.7
m1 = 0.05	999.543	998.36	996.938	995.302	993.464	1489.2	1502.9	1515	1525.4	1534.2
m1 = 0.1	1000.6	999.369	997.956	996.293	994.341	1495.2	1508.8	1520.6	1530.8	1539.4
